Results on 42 compounds are retold here after patent EP4682145A1, “BENZOHETEROCYCLIC COMPOUND, AND PREPARATION METHOD THEREFOR AND USE THEREOF” (Cascade Pharmaceuticals, Inc., priority 2023, dated 2024).

A value given as a limit tells only on which side of the number the result lay.

A word on the EC50: it is the concentration needed to bring the measured effect to its halfway point.

In this test the target is T1, human FFAR1 (GPR40) (Homo sapiens, UniProt O14842).
T1 construct: Flag; expressed in transfected cells; host or cells: HEK293T
T1 sequence (O14842 whole entry): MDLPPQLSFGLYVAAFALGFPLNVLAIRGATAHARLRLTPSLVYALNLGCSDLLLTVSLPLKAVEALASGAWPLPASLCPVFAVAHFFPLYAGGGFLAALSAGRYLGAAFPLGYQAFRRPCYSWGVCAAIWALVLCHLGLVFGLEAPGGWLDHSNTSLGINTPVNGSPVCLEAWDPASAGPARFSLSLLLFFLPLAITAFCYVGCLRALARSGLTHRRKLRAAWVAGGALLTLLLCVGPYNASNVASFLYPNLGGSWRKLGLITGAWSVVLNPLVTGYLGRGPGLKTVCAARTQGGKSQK
In words: NFAT-RE-based reporter gene activity assay (Dual-Glo luciferase) for GPR40 agonistic activity in co-transfected HEK293T cells. It is filed as cell-based. The settings on record: 4-hour treatment. The gist of the method: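 HEK293T cells co-transfected with human FFAR1, NFAT-RE firefly luciferase and TK-Renilla plasmids; 24 h later treated 4 h with 10 half-log compound dilutions from 1 µM. Firefly/Renilla ratio normalised to DMSO; EC50 from four-parameter fit.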

`COc1cccc(N2CCC(c3oc4cc(C(CC(=O)O)C5CC5)ccc4c3-c3csc(C)c3)CC2)c1` (stereo not drawn) [Compound 35]: the half-maximal effective concentration (EC50) was 100 to 500 nM. Also, the “Efficacy (%)” value (class symbols) is “†† (150 ≥ Efficacy (%) > 100)”.
Consider `COc1ccnc(N2CCC(c3oc4cc(C(CC(=O)O)C5CC5)ccc4c3-c3cnn(C(C)(C)C)c3)CC2)c1` (stereo not drawn) [Compound 83], for which the EC50 lay in the range of 100 to 500 nM. Also, where the note is “class symbols”, the “Efficacy (%)” value was “† (100 ≥ Efficacy (%) > 50)”.
Regarding `COc1cccc(N2CCC(c3oc4cc([C@@H](CC(=O)O)C5CC5)ccc4c3C(C)CCC(C)C)CC2)c1` (stereo partly drawn) [Compound 385], the EC50 was in the range of 10 to 100 nM. In addition, the “Efficacy (%)” value (class symbols) is listed as “†† (150 ≥ Efficacy (%) > 100)”.
`COc1ccnc(N2CCC(c3oc4cc(C(CC(=O)O)C5CC5)ccc4c3-c3ccc(C(C)(C)C)cc3)CC2)c1` (stereo not drawn) [Compound 32] showed an EC50 of 100 to 500 nM. Further, the “Efficacy (%)” value (class symbols) is on record as “†† (150 ≥ Efficacy (%) > 100)”.
The matching figures for `COc1cccc(N2CCC(c3oc4cc(C(CC(=O)O)C5CC5)ccc4c3-c3nnc(C4(C)CCCCC4)o3)CC2)c1` (stereo not drawn) [Compound 140]: 100 to 500 nM and “††† (Efficacy (%) > 150)”.
As for `COc1ccc(C(=O)N(CC(C)(C)C)c2cccc(C)n2)c(N2CCC(COc3cc([C@@H](CC(=O)O)C4CC4)ccn3)CC2)c1` [SCO-267, SCO267, reference compound], the EC50 lay in the range of 10 to 100 nM. Besides, under “numeric values of positive controls”, the “Efficacy (%)” value worked out at 100%.
As to `COc1cccc(N2CCC(c3oc4cc(C(CC(=O)O)C5CC5)ccc4c3C(=O)Nc3nc(C(C)(C)C)cs3)CC2)c1` (stereo not drawn) [Compound 298], the EC50 was 100 to 500 nM. The “Efficacy (%)” value (class symbols) is on record as “†† (150 ≥ Efficacy (%) > 100)”.
`CCc1ccc(Cl)c(NC(=O)c2c(C3CCN(c4cc(OC)ccc4F)CC3)oc3cc([C@@H](CC(=O)O)C4CC4)ccc23)c1` [Compound 339]: the EC50 is at most 10 nM. Besides, the “Efficacy (%)” value (class symbols) is “†† (150 ≥ Efficacy (%) > 100)”.
`COc1cccc(N2CCC(c3oc4cc([C@@H](CC(=O)O)C5CC5)ccc4c3-c3ccnc(C)c3)CC2)c1` [Compound 145] showed a concentration giving a half-maximal response (EC50) of 10 to 100 nM. Also, for the setting “class symbols”, the “Efficacy (%)” value is recorded as “†† (150 ≥ Efficacy (%) > 100)”.
In turn, `COc1cccc(N2CCC(c3oc4cc([C@@H](CC(=O)O)C5CC5)ccc4c3C(=O)Nc3cc(OC)ccc3F)CC2)c1` [Compound 260] showed an EC50 of 10 to 100 nM. In addition, the “Efficacy (%)” value (class symbols) is reported as “††† (Efficacy (%) > 150)”.
`COc1cccc(N2CCC(c3oc4cc(C(CC(=O)O)C5CC5)ccc4c3-c3cnn(C(C)(C)C)c3)CC2)c1F` (stereo not drawn) [Compound 86] showed an EC50 of 10 to 100 nM. Further, for the setting “class symbols”, the “Efficacy (%)” value was “††† (Efficacy (%) > 150)”.
The matching figures for `COc1cccc(N2CCC(c3oc4cc([C@H](C5CC5)C(C)(C)C(N)=O)ccc4c3-c3cnn(C(C)(C)C)c3)CC2)c1` [Compound 71]: 100 to 500 nM and “†† (150 ≥ Efficacy (%) > 100)”.
`COc1cccc(N2CCC(c3oc4cc([C@@H](CC(=O)O)C5CC5)ccc4c3C(OCC(C)C)c3ccccc3F)CC2)c1` (stereo partly drawn) [Compound 432] yielded a 50% effective concentration (EC50) of 10 to 100 nM. For the same compound, where the note is “class symbols”, the “Efficacy (%)” value is given as “††† (Efficacy (%) > 150)”.
In turn, `COc1cccc(N2CCC(c3oc4cc(C(CC(=O)O)C5CC5)ccc4c3-c3cc(C(C)(C)C)on3)CC2)c1` (stereo not drawn) [Compound 114] showed an EC50 of 10 to 100 nM. Where the note is “class symbols”, the “Efficacy (%)” value was “†† (150 ≥ Efficacy (%) > 100)”.
`COc1cccc(N2CCC(c3oc4cc([C@@H](CC(=O)O)C5CC5)ccc4c3C(=O)Nc3ccccc3C)CC2)c1F` [Compound 324] came in with an EC50 of at most 10 nM. The “Efficacy (%)” value (class symbols) was “†† (150 ≥ Efficacy (%) > 100)”.
Compound `CSc1cccc(N2CCC(c3oc4cc(C(CC(=O)O)C5CC5)ccc4c3-c3cccc(C(C)(C)C)c3)CC2)c1` (stereo not drawn) [Compound 31] displayed an EC50 of 100 to 500 nM. For the same compound, under “class symbols”, the “Efficacy (%)” value is “†† (150 ≥ Efficacy (%) > 100)”.
`COc1cccc(N2CCC(c3oc4cc([C@@H](CC(=O)O)C5CC5)ccc4c3C(=O)Nc3cc(C)ccc3OC)CC2)c1` [Compound 272] registered an EC50 of 10 to 100 nM. Further, where the note is “class symbols”, the “Efficacy (%)” value is “††† (Efficacy (%) > 150)”.
`COc1cccc(N2CCC(c3oc4cc([C@@H](CC(=O)O)C5CC5)ccc4c3C(OC)c3ccccc3)CC2)c1` (stereo partly drawn) [Compound 425] gave an EC50 of 100 to 500 nM. In addition, where the note is “class symbols”, the “Efficacy (%)” value is listed as “†† (150 ≥ Efficacy (%) > 100)”.
Compound `COc1cccc(N2CCC(c3oc4cc([C@@H](CC(=O)O)C5CC5)ccc4c3C(=O)Nc3cc(N4CCCCC4)ccc3Cl)CC2)c1` [Compound 284] returned an EC50 of at most 10 nM. Further, where the note is “class symbols”, the “Efficacy (%)” value was “†† (150 ≥ Efficacy (%) > 100)”.
The compound `COc1ccc(F)c(N2CCC(c3oc4cc(C(CC(=O)O)C5CC5)ccc4c3-c3cccc(-n4cccn4)c3)CC2)c1` (stereo not drawn) [Compound 193] showed an EC50 of 100 to 500 nM. Besides, the “Efficacy (%)” value (class symbols) is given as “†† (150 ≥ Efficacy (%) > 100)”.
`COc1cccc(N2CCC(c3oc4cc([C@@H](CC(=O)O)C5CC5)ccc4c3C(C)OCCC(C)(C)C)CC2)c1` (stereo partly drawn) [Compound 412] gave an EC50 of 100 to 500 nM. For the same compound, the “Efficacy (%)” value (class symbols) is “††† (Efficacy (%) > 150)”.
Take `COc1cccc(N2CCC(c3oc4cc([C@@H](CC(=O)O)C5CC5)ccc4c3C(OCC(C)C)c3cccc(F)c3)CC2)c1` (stereo partly drawn) [Compound 430]: the EC50 was 100 to 500 nM. Besides, for the setting “class symbols”, the “Efficacy (%)” value is “††† (Efficacy (%) > 150)”.
Compound `CC(C)(C)c1cccc(-c2c(-c3ccccc3)oc3cc(C(CC(=O)O)C4CC4)ccc23)c1` (stereo not drawn) [Compound 2] showed an EC50 above 500 nM. Where the note is “class symbols”, the “Efficacy (%)” value is given as “†† (150 ≥ Efficacy (%) > 100)”.
In the case of `CC(C)(C)c1ccc(-c2c(C3CCN(c4ccc5ncoc5c4)CC3)oc3cc(C(CC(=O)O)C4CC4)ccc23)cc1` (stereo not drawn) [Compound 214], the EC50 was 100 to 500 nM. For the same compound, under “class symbols”, the “Efficacy (%)” value is reported as “† (100 ≥ Efficacy (%) > 50)”.
In turn, `COc1ccc(F)c(N2CCC(c3oc4cc(C(CC(=O)O)C5CC5)ccc4c3/C=C/C(C)(C)C)CC2)c1` (stereo not drawn) [Compound 366] displayed an EC50 of 10 to 100 nM. The “Efficacy (%)” value (class symbols) is listed as “†† (150 ≥ Efficacy (%) > 100)”.
Take `COc1ccc(F)c(N2CCC(c3oc4cc([C@@H](CC(=O)O)C5CC5)ccc4c3C/C=C/C3CC3)CC2)c1` [Compound 373]: the EC50 was 10 to 100 nM. Besides, under “class symbols”, the “Efficacy (%)” value is “†† (150 ≥ Efficacy (%) > 100)”.
On to `COc1cccc(N2CCC(c3oc4cc(C(CC(=O)O)C5CC5)ccc4c3-c3nnc(C45CC6CC(CC(C6)C4)C5)o3)CC2)c1` (stereo not drawn) [Compound 139], for which the concentration giving a half-maximal response (EC50) is 100 to 500 nM. The “Efficacy (%)” value (class symbols) is on record as “†† (150 ≥ Efficacy (%) > 100)”.
As for `O=C(O)C[C@H](c1ccc2c(C(=O)Nc3ccccc3F)c(C3CCN(c4ccc5c(c4)OCO5)CC3)oc2c1)C1CC1` [Compound 331], the EC50 lay within 100 to 500 nM. Further, the “Efficacy (%)” value (class symbols) was “†† (150 ≥ Efficacy (%) > 100)”.
For `COc1cccc(N2CCC(c3oc4cc(C(CC(=O)O)C5CC5)ccc4c3C(=O)Nc3cccc(C)c3F)CC2)c1` (stereo not drawn) [Compound 250], the EC50 lay in the range of 100 to 500 nM. Further, the “Efficacy (%)” value (class symbols) is “†† (150 ≥ Efficacy (%) > 100)”.
`COc1cccc(N2CCC(c3oc4cc(C(CC(=O)O)C5CC5)ccc4c3-c3cnn(C(C)(C)CF)c3)CC2)c1` (stereo not drawn) [Compound 47] registered an EC50 of 100 to 500 nM. Besides, the “Efficacy (%)” value (class symbols) is on record as “†† (150 ≥ Efficacy (%) > 100)”.
With `COc1ccc(F)c(N2CCC(c3oc4cc(C(CC(=O)O)C5CC5)ccc4c3/C=C/C(C)(C)O)CC2)c1` (stereo not drawn) [Compound 368], the EC50 was 100 to 500 nM. Further, under “class symbols”, the “Efficacy (%)” value is on record as “††† (Efficacy (%) > 150)”.
Consider `COc1ccc(F)c(N2CCC(c3oc4cc(C(CC(=O)O)C5CC5)ccc4c3-c3ccc(N(C(C)=O)C(C)C)cc3)CC2)c1` (stereo not drawn) [Compound 186], for which the EC50 was in the range of 100 to 500 nM. Besides, the “Efficacy (%)” value (class symbols) is reported as “† (100 ≥ Efficacy (%) > 50)”.
As to `COc1cccc(N2CCC(c3oc4cc([C@@H](CC(=O)O)C5CC5)ccc4c3C(=O)Nc3cc(C)ccc3Cl)CC2)c1` [Compound 265], the EC50 is at most 10 nM. In addition, the “Efficacy (%)” value (class symbols) is “††† (Efficacy (%) > 150)”.
In turn, `COc1cccc(N2CCC(c3oc4cc([C@@H](CC(=O)O)C5CC5)ccc4c3C(=O)Nc3cc(C(C)=O)ccc3Cl)CC2)c1` [Compound 283] registered a 50% effective concentration (EC50) of 10 to 100 nM. For the setting “class symbols”, the “Efficacy (%)” value is “††† (Efficacy (%) > 150)”.
The compound `CC(C)=CCc1c(C2CCN(c3ccc4c(c3)OCO4)CC2)oc2cc([C@@H](CC(=O)O)C3CC3)ccc12` [Compound 376] showed a 50% effective concentration (EC50) of 10 to 100 nM. The “Efficacy (%)” value (class symbols) is on record as “†† (150 ≥ Efficacy (%) > 100)”.
The compound `COc1cccc(N2CCC(c3oc4cc([C@@H](CC(=O)O)C5CC5)ccc4c3C(=O)Nc3cc(Cl)ccc3Cl)CC2)c1` [Compound 267] showed an EC50 of at most 10 nM. The “Efficacy (%)” value (class symbols) is listed as “††† (Efficacy (%) > 150)”.
Turning to `COc1ccc(F)c(N2CCC(c3oc4cc(C(CC(=O)O)C5CC5)ccc4c3CCC(C)(C)O)CC2)c1` (stereo not drawn) [Compound 390], the EC50 is 100 to 500 nM. In addition, for the setting “class symbols”, the “Efficacy (%)” value is “†† (150 ≥ Efficacy (%) > 100)”.
In the case of `COc1cc(OC)cc(N2CCC(c3oc4cc(C(CC(=O)O)C5CC5)ccc4c3-c3ccc(C(C)(C)C)cc3)CC2)c1` (stereo not drawn) [Compound 205], the EC50 is 100 to 500 nM. Further, the “Efficacy (%)” value (class symbols) is reported as “† (100 ≥ Efficacy (%) > 50)”.
The matching figures for `O=C(O)C[C@H](c1ccc2c(C(=O)Nc3cc(F)ccc3Br)c(C3CCN(c4ccc5c(c4)OCO5)CC3)oc2c1)C1CC1` [Compound 334]: at most 10 nM and “†† (150 ≥ Efficacy (%) > 100)”.
With `COc1cccc(N2CCC(c3oc4cc(C(CC(=O)O)C5CC5)ccc4c3C(=O)Nc3c(F)cccc3Br)CC2)c1` (stereo not drawn) [Compound 264], the EC50 was 100 to 500 nM. Besides, the “Efficacy (%)” value (class symbols) is reported as “†† (150 ≥ Efficacy (%) > 100)”.
The matching figures for `COc1ccc(F)c(N2CCC(c3oc4cc(C(CC(=O)O)C5CC5)ccc4c3-c3ccc(N(C)C(C)C)cc3)CC2)c1` (stereo not drawn) [Compound 185]: 100 to 500 nM and “†† (150 ≥ Efficacy (%) > 100)”.
With `CC(C)(C)n1cc(-c2c(C3CCN(c4cccc(F)c4)CC3)oc3cc(C(CC(=O)O)C4CC4)ccc23)cn1` (stereo not drawn) [Compound 41], the EC50 is 100 to 500 nM. In addition, where the note is “class symbols”, the “Efficacy (%)” value was “†† (150 ≥ Efficacy (%) > 100)”.
